# Source: patent US20050118276A1, “Coated metal pyrithione particles for treatment of microorganisms” (Arch Chemicals, Inc., priority 2003, published 2005)
# System: Malassezia furfur
# Assay: comparative corneofungimetry bioassay on human stratum corneum strippings
# Type: cell-based
# Settings: for Median positive fungal cells# from 20 samples: 9 days at 27° C., neutral red vital stain, counted by mm^2
# [1] = 1% zinc pyrithione water suspension
# [2] = formulated shampoo containing 1% zinc pyrithione
# Protocol: As a more advanced test, “corneofungimetry” was used to evaluate the particles prepared in accordance with the Example and Comparative Examples. This test is a good pre-clinical screening method because it requires growing the Malassezia furfur sp on a substrate that is more representative of its natural environment. Cyanoacrylate is used to harvest a layer of skin, and these skin surface strippings are treated with olive oil to simulate sebum. The prepared skin samples are then treated with the actives under investigation, inoculated with the microorganism of interest and incubated.
# The corneofungimetry bioassay was performed on normal stratum corneum harvested from 20 healthy volunteers using cyanoacrylate adhesive. Samples were dipped into olive oil and stored in a sterile environment for 3 days.
# Malassezia furfur was cultured on MLNA (Modified Leeming and Notman Agar) medium. Suspensions of fungal cells were prepared in physiologic saline (10^4-10^5 cells/ml). Aliquots of 250 μl of these suspensions were deposited onto the stratum corneum samples and incubated under moist conditions at 27° C. for 9 days. Samples were then stained using neutral red as a vital stain identifying living fungi growing on the human stratum corneum. The number of positive fungal cells was counted by mm^2 using computerized image analysis (Analysis Olympus). The medians and ranges were determined. Between-product comparisons were performed using the paired non-parametric Friedman test followed by the Dunn test.
substance,measurement,setting,value
zinc pyrithione [Uncoated],% killing compared to saline control,[1],44%
same,Median positive fungal cells# from 20 samples,[1],451
same,% killing compared to saline control,[2],52%
same,Median positive fungal cells# from 20 samples,[2],363
